Test results: ChEMBL document CHEMBL3826966, “A chromatography-free isolation of rohitukine from leaves of Dysoxylum binectariferum: Evaluation for in vitro cytotoxicity, Cdk inhibition and physicochemical properties” (Bioorg Med Chem Lett, 2016)

What was measured:
[1] = molecular target: Insulin-like growth factor 1 receptor (Homo sapiens) (UniProt P08069); assay: Inhibition of human IGF1R (954 to 1367 residues) assessed as remaining enzyme activity at 50 uM after 30 mins by 33P-ATP filter-binding assay
Sequence of Insulin-like growth factor 1 receptor (Homo sapiens) (P08069 31-736 limits assumed): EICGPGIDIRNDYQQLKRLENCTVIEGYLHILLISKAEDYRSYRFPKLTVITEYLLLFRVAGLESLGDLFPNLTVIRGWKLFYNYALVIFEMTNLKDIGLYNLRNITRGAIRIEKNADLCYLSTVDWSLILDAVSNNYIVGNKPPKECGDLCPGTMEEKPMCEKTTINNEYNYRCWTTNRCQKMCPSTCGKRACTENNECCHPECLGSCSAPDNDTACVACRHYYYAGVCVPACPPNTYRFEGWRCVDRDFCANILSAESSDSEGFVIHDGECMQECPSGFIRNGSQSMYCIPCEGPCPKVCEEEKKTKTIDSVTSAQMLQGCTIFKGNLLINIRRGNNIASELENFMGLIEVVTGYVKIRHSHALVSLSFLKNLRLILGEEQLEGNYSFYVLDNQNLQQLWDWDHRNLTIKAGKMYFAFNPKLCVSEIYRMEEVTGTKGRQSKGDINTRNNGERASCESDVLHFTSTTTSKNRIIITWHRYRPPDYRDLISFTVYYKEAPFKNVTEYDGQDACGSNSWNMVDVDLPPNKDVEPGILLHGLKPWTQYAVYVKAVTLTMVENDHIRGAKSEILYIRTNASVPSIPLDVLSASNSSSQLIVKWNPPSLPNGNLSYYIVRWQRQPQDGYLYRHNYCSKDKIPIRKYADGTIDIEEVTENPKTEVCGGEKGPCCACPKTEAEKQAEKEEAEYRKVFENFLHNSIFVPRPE
Sequence of Insulin-like growth factor 1 receptor (Homo sapiens) (P08069 741-1367 limits assumed): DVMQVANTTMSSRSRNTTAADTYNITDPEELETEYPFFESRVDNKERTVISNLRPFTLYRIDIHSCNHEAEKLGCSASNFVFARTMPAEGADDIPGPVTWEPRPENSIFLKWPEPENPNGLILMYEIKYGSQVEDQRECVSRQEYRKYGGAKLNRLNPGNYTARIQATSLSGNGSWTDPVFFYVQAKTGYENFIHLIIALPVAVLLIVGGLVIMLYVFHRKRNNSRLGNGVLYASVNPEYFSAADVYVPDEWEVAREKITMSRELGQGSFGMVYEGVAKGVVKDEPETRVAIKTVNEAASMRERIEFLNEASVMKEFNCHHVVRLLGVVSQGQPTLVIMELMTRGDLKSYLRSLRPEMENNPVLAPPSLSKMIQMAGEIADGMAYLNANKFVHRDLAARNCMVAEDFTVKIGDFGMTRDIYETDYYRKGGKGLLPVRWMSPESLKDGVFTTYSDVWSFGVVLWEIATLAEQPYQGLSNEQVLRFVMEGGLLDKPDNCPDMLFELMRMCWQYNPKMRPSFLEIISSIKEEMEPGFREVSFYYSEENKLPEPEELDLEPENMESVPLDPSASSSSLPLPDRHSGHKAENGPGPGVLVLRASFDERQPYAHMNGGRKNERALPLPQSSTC

[2] = Cytotoxicity against HEK293 cells assessed as cell growth inhibition after 48 hrs by MTT assay; type: cell-based; conditions: human
[3] = Cytotoxicity against human SF295 cells assessed as cell growth inhibition after 48 hrs by MTT assay; type: functional; conditions: SF-295, 48 h
[4] = molecular target: Serine/threonine-protein kinase MARK2 (Homo sapiens) (UniProt Q7KZI7); assay: Inhibition of human MARK2 (2 to 691 residues) assessed as remaining enzyme activity at 50 uM after 30 mins by 33P-ATP filter-binding assay
[5] = molecular target: Phosphorylase kinase (Homo sapiens) (UniProt P15735+P46020+P46019+Q93100+Q16816); assay: Inhibition of human PHK assessed as remaining enzyme activity at 50 uM after 30 mins by 33P-ATP filter-binding assay; type: protein-complex assay
[6] = molecular target: Myosin light chain kinase, smooth muscle (Homo sapiens) (UniProt Q15746); assay: Inhibition of human SmMLCK (475 to 838 residues) assessed as remaining enzyme activity at 50 uM after 30 mins by 33P-ATP filter-binding assay
Sequence of Myosin light chain kinase, smooth muscle (Homo sapiens) (Q15746 whole entry, the tested form may be a part): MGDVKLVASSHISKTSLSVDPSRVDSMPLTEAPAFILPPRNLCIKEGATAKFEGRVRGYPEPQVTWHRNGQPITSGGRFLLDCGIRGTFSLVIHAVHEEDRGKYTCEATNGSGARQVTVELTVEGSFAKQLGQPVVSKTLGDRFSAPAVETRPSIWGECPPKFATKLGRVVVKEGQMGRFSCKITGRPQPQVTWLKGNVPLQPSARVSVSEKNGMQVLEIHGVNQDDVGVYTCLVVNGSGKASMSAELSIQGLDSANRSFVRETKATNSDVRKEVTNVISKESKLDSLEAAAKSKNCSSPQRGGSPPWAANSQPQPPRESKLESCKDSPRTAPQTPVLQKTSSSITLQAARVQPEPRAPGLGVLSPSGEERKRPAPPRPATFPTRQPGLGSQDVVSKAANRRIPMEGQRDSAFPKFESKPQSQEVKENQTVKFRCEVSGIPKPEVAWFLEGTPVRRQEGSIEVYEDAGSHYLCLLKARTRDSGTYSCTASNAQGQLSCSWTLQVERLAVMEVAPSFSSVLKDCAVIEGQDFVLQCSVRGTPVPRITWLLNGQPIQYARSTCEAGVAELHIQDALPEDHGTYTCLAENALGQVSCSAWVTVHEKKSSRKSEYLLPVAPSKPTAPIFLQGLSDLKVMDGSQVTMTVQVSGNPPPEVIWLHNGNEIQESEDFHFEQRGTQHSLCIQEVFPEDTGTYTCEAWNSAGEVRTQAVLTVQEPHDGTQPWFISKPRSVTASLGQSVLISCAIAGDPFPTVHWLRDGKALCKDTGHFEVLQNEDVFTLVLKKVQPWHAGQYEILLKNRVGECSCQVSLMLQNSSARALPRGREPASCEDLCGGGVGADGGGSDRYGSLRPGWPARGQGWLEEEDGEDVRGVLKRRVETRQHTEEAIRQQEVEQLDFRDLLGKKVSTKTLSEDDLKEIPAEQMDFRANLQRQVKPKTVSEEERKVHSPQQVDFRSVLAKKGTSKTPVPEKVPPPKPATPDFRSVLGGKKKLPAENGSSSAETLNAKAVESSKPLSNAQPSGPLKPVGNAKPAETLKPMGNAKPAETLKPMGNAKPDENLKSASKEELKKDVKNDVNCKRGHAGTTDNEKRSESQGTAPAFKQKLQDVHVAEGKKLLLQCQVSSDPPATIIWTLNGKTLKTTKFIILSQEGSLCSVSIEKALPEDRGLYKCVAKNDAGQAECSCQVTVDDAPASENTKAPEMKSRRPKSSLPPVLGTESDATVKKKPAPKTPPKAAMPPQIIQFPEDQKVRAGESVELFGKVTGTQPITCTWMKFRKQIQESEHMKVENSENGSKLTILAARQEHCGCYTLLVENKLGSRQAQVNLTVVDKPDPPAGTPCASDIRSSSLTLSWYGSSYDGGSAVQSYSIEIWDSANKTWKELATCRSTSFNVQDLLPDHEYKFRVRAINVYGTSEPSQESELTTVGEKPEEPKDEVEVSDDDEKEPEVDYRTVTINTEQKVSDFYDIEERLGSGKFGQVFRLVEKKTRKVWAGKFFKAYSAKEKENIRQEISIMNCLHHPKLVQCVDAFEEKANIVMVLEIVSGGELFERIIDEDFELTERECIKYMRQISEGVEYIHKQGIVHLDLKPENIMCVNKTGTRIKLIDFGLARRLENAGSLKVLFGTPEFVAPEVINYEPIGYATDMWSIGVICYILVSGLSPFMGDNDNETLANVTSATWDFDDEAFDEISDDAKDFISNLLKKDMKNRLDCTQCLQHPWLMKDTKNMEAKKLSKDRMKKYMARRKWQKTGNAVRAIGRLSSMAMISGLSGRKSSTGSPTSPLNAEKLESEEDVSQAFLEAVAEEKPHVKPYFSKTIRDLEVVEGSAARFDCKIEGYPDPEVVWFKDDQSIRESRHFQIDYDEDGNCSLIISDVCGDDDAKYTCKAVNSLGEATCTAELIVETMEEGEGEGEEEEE

[7] = Cytotoxicity against human THP1 cells assessed as cell growth inhibition after 48 hrs by MTT assay; type: functional; conditions: THP-1, 48 h
[8] = molecular target: Dual specificity testis-specific protein kinase 1 (Homo sapiens) (UniProt Q15569); assay: Inhibition of human TESK1 (1 to 345 residues) assessed as remaining enzyme activity at 50 uM after 30 mins by 33P-ATP filter-binding assay
[9] = molecular target: Mitogen-activated protein kinase kinase kinase 1 (Homo sapiens) (UniProt Q13233); assay: Inhibition of human MEKK1 (877 to1563 residues) assessed as remaining enzyme activity at 50 uM after 30 mins by 33P-ATP filter-binding assay
[10] = molecular target: Tyrosine-protein kinase Yes (Homo sapiens) (UniProt P07947); assay: Inhibition of human YES1 (1 to 543 residues) assessed as remaining enzyme activity at 50 uM after 30 mins by 33P-ATP filter-binding assay
[11] = Cytotoxicity against human PANC1 cells assessed as cell growth inhibition after 48 hrs by MTT assay; type: functional; conditions: PANC-1, 48 h
[12] = molecular target: Serine/threonine-protein kinase Nek2 (Homo sapiens) (UniProt P51955); assay: Inhibition of human NEK2a (1 to 445 residues) assessed as remaining enzyme activity at 50 uM after 30 mins by 33P-ATP filter-binding assay
[13] = molecular target: Mitogen-activated protein kinase kinase kinase 5 (Homo sapiens) (UniProt Q99683); assay: Inhibition of human ASK1 (670 to 950 residues) assessed as remaining enzyme activity at 50 uM after 30 mins by 33P-ATP filter-binding assay
[14] = molecular target: Mitogen-activated protein kinase 15 (Homo sapiens) (UniProt Q8TD08); assay: Inhibition of human ERK8 (2 to 544 residues) assessed as remaining enzyme activity at 50 uM after 30 mins by 33P-ATP filter-binding assay
[15] = molecular target: Dual specificity mitogen-activated protein kinase kinase 2 (Homo sapiens) (UniProt P36507); assay: Inhibition of human MKK2 (2 to 400 residues) assessed as remaining enzyme activity at 50 uM after 30 mins by 33P-ATP filter-binding assay
[16] = Cell cycle arrest in human HL60 cells assessed as accumulation at G1 phase at 5 uM (reference value: 59 %); type: functional, cell-based; conditions: HL-60
[17] = Cytotoxicity against human MOLT4 cells assessed as cell growth inhibition after 48 hrs by MTT assay; type: functional; conditions: MOLT-4, 48 h
[18] = molecular target: Serine/threonine-protein kinase 24 (Homo sapiens) (UniProt Q9Y6E0); assay: Inhibition of human MST3 (2 to 431 residues) assessed as remaining enzyme activity at 50 uM after 30 mins by 33P-ATP filter-binding assay
[19] = molecular target: Mitogen-activated protein kinase 11 (Homo sapiens) (UniProt Q15759); assay: Inhibition of human p38beta MAPK (1 to 364 residues) assessed as remaining enzyme activity at 50 uM after 30 mins by 33P-ATP filter-binding assay
[20] = molecular target: Serine/threonine-protein kinase WNK1 (Homo sapiens) (UniProt Q9H4A3); assay: Inhibition of human WNK1 (1 to 661 residues) assessed as remaining enzyme activity at 50 uM after 30 mins by 33P-ATP filter-binding assay
[21] = molecular target: Homeodomain-interacting protein kinase 3 (Homo sapiens) (UniProt Q9H422); assay: Inhibition of human HIPK3 (161 to 562 residues) assessed as remaining enzyme activity at 50 uM after 30 mins by 33P-ATP filter-binding assay
[22] = tested on: MAP3K9; assay: Inhibition of human MLK1 (132 to 413 residues) assessed as remaining enzyme activity at 50 uM after 30 mins by 33P-ATP filter-binding assay
[23] = molecular target: Misshapen-like kinase 1 (Homo sapiens) (UniProt Q8N4C8); assay: Inhibition of human MINK1 (1 to 320 residues) assessed as remaining enzyme activity at 50 uM after 30 mins by 33P-ATP filter-binding assay
[24] = molecular target: MAP/microtubule affinity-regulating kinase 4 (Homo sapiens) (UniProt Q96L34); assay: Inhibition of human MARK4 (2 to 752 residues) assessed as remaining enzyme activity at 50 uM after 30 mins by 33P-ATP filter-binding assay
Sequence of MAP/microtubule affinity-regulating kinase 4 (Homo sapiens) (Q96L34 whole entry, the tested form may be a part): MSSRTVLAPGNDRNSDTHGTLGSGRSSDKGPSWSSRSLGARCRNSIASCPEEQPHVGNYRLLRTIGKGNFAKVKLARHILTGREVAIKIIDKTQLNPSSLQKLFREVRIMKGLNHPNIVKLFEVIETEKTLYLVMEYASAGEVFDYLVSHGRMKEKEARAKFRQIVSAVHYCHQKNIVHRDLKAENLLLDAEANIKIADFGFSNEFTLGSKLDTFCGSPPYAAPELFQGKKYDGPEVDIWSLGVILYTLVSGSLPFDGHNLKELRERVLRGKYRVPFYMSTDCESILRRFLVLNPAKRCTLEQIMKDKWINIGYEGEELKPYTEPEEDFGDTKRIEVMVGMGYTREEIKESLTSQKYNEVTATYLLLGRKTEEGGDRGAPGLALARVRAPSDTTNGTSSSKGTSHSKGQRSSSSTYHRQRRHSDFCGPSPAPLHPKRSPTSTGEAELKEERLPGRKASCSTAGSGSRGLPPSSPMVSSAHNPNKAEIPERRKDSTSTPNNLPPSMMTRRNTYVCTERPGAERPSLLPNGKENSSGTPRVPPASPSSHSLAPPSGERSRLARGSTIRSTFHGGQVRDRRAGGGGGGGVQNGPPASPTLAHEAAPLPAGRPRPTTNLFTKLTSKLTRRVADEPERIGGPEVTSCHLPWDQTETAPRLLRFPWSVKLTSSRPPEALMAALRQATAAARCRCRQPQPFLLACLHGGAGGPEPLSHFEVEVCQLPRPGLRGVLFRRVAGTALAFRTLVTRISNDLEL

[25] = molecular target: Serine/threonine-protein kinase MARK1 (Homo sapiens) (UniProt Q9P0L2); assay: Inhibition of human MARK1 (2 to 795 residues) assessed as remaining enzyme activity at 50 uM after 30 mins by 33P-ATP filter-binding assay
[26] = molecular target: Dual specificity mitogen-activated protein kinase kinase 1 (Homo sapiens) (UniProt Q02750); assay: Inhibition of human MKK1 (2 to 393 residues) assessed as remaining enzyme activity at 50 uM after 30 mins by 33P-ATP filter-binding assay
Sequence of Dual specificity mitogen-activated protein kinase kinase 1 (Homo sapiens) (Q02750 whole entry, the tested form may be a part, canonical isoform): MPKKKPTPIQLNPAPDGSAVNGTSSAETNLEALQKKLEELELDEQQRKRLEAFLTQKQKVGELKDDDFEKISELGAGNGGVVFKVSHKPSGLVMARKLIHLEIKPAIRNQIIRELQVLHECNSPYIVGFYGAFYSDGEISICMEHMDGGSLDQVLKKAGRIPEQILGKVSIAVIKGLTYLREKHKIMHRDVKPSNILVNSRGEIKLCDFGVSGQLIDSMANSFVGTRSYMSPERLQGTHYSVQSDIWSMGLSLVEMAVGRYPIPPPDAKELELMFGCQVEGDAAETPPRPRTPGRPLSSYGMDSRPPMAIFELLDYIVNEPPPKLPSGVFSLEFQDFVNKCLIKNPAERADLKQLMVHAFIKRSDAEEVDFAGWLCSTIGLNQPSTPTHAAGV

[27] = molecular target: Casein kinase I isoform gamma-2 (Homo sapiens) (UniProt P78368); assay: Inhibition of human CK1gamma2 (1 to 415 residues) assessed as remaining enzyme activity at 50 uM after 30 mins by 33P-ATP filter-binding assay
[28] = molecular target: Inhibitor of nuclear factor kappa-B kinase subunit beta (Homo sapiens) (UniProt O14920); assay: Inhibition of human IKKb (1 to 736 residues) assessed as remaining enzyme activity at 50 uM after 30 mins by 33P-ATP filter-binding assay
[29] = molecular target: Mitogen-activated protein kinase 3 (Homo sapiens) (UniProt P27361); assay: Inhibition of human ERK1 (1 to 379) assessed as remaining enzyme activity at 50 uM after 30 mins by 33P-ATP filter-binding assay
Sequence of Mitogen-activated protein kinase 3 (Homo sapiens) (P27361 whole entry, the tested form may be a part): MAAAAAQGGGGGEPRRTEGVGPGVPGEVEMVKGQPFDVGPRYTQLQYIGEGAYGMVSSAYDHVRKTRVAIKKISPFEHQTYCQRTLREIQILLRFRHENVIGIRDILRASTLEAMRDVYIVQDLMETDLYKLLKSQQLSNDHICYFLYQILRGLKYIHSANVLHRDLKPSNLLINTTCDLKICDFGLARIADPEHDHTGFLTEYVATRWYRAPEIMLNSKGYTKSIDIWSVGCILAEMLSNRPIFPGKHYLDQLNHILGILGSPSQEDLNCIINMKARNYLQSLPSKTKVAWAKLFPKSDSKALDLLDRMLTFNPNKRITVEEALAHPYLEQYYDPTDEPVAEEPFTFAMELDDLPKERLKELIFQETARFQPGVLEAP

[30] = molecular target: Serine/threonine-protein kinase 16 (Homo sapiens) (UniProt O75716); assay: Inhibition of human MPSK1 (1 to 305 residues) assessed as remaining enzyme activity at 50 uM after 30 mins by 33P-ATP filter-binding assay
Sequence of Serine/threonine-protein kinase 16 (Homo sapiens) (O75716 whole entry, the tested form may be a part): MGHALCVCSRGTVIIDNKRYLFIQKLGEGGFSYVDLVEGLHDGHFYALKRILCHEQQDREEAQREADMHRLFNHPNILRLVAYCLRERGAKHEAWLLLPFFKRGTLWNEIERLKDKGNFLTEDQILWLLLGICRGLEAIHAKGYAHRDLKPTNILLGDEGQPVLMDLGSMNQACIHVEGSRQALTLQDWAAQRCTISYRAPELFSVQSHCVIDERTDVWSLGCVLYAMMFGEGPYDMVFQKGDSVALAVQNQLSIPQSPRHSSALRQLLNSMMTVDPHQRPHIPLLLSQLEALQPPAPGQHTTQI

Cc1cc(=O)c2c(O)cc(O)c([C@H]3CCN(C)C[C@H]3O)c2o1 [ROHITUKINE]
Activity [1]: 113%
GI50 at 48 h [2]: > 50 µM
GI50 [3]: 27 µM
Activity [4]: 69%
Activity [5]: 23%
Activity [6]: 78%
GI50 [7]: 28 µM
Activity [8]: 88%
Activity [9]: 83%
Activity [10]: 57%
GI50 [11]: 22 µM
Activity [12]: 89%
Activity [13]: 96%
Activity [14]: 19%
Activity [15]: 44%
Activity [16]: 56%
GI50 [17]: 12 µM
Activity [18]: 85%
Activity [19]: 76%
Activity [20]: 100%
Activity [21]: 100%
Activity [22]: 47%
Activity [23]: 73%
Activity [24]: 92%
Activity [25]: 67%
Activity [26]: 27%
Activity [27]: 92%
Activity [28]: 83%
Activity [29]: 86%
Activity [30]: 87%
